Broadly, the IC50 is the midpoint of a concentration-inhibition curve.

Here are results for one molecule from paper PMC10363545, “The potential use of glycosyl-transferase inhibitors for targeted reduction of S. mutans biofilms in dental materials” (Scientific Reports, 2023).

The target in one experiment is T1, GTF-C (Streptococcus mutans, UniProt P13470).
T1 construct: gene gtfC; recombinant GTF-C
As to the kind of experiment: dynamic light scattering glucan polymerization assay with recombinant GTF-C at […] sucrose; also pNPG hydrolysis kinetics and gel zymography. It counts as biochemical.

The target of the next experiment is T2, GTF-B (Streptococcus mutans, UniProt P08987).
T2 construct: gene gtfB; recombinant GTF-B
As to the kind of experiment: pNPG hydrolysis kinetics with recombinant enzyme (Vmax reduced […]); gel zymography at […] ([…] inhibition). It is filed as biochemical.

T1 sequence (P13470 35-1455): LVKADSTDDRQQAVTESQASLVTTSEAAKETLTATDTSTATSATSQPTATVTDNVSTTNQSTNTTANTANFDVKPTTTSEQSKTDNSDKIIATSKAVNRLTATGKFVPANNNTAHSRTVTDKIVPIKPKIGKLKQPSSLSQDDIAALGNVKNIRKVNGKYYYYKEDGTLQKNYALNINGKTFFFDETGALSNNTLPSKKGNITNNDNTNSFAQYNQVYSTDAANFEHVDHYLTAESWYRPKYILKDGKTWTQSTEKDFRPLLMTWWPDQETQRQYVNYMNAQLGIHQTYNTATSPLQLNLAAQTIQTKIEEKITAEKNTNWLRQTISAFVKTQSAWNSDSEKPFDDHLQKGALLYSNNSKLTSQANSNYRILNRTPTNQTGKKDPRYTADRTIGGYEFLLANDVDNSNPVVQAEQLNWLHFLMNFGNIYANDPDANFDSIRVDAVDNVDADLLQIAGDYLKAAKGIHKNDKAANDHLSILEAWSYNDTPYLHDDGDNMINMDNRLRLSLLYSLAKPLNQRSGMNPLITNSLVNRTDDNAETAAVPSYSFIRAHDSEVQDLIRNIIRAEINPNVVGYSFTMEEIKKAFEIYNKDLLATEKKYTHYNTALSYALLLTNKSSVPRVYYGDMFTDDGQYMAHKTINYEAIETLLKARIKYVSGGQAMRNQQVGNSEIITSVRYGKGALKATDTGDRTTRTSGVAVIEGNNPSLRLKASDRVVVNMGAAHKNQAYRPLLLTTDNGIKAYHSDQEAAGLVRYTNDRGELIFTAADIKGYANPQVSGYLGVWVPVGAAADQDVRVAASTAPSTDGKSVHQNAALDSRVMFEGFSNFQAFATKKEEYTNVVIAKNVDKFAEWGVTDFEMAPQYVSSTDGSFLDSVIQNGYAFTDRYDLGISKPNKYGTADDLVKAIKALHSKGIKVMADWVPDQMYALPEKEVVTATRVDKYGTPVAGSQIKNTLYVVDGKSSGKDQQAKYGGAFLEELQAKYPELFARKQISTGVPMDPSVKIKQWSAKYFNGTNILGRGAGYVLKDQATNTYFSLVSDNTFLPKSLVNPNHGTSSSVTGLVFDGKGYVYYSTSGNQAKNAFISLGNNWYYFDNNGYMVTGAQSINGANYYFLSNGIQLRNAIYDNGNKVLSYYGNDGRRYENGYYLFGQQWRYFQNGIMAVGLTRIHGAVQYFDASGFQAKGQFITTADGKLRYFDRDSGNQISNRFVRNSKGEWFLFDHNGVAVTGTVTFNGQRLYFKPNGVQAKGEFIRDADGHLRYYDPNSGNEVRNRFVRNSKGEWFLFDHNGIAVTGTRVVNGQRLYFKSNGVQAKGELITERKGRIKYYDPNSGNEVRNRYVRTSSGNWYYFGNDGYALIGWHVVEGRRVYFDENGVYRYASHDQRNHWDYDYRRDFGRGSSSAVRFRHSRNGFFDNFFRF
T2 sequence (P08987 35-1476): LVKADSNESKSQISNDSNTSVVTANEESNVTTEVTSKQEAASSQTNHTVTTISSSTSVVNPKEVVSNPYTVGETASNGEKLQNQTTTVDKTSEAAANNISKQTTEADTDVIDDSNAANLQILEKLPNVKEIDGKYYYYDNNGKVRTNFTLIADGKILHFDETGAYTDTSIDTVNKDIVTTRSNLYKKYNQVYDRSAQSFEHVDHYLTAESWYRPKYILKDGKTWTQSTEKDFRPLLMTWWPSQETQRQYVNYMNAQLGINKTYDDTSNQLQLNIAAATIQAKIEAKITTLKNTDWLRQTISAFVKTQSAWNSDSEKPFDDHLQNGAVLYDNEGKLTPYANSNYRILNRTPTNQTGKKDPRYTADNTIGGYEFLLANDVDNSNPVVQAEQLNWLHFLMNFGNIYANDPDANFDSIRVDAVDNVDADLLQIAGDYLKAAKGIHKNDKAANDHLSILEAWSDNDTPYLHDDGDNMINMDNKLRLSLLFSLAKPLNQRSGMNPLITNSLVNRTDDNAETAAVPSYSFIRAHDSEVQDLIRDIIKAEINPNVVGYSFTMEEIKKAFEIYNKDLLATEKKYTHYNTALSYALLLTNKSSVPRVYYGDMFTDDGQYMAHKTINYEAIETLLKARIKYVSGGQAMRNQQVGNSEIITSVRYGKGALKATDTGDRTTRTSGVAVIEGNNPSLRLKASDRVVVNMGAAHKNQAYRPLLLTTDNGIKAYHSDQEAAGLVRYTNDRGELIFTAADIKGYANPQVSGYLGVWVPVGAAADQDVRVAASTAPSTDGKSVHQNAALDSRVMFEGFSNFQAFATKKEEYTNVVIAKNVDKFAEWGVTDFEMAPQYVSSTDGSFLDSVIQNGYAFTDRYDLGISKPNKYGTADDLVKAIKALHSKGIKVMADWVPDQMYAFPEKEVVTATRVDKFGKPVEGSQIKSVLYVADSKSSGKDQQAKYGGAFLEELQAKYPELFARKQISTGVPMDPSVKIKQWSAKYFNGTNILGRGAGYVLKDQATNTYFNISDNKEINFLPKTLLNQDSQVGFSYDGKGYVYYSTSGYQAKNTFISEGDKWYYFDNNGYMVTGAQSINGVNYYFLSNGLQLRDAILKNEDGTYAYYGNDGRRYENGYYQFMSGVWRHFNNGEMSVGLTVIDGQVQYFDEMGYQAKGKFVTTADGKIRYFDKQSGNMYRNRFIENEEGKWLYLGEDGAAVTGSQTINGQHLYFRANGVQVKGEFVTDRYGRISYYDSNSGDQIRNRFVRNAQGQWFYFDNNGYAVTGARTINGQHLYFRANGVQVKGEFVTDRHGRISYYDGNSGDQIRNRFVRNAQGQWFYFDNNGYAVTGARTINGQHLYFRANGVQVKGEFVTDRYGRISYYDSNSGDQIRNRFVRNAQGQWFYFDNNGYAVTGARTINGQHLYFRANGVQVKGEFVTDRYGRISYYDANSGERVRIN

Turning to `NC(=O)c1cc(OCCOCCOCCOCCO)ccc1NC(=O)c1cc2cc([N+](=O)[O-])ccc2s1` [G43-C3-TEG], the IC50 on GTF-C was 23.5 µM. Further, on GTF-B, the “% reduction of Vmax” value is on record as 39 % reduction of Vmax.
